Test in all cases: inhibition of tumour cell growth, NCI panel, 48 h
For assay [1], the system named is HT-29.
Assay [2] relates to HCT-15.
In assay [3] the test system is ACHN.
The test system of assay [4] is UACC-62.
Assay [5] has as its system HOP-92.
The test system of assay [6] is COLO 205.
Assay [7] relates to RPMI-8226.
For assay [8], the system named is Malme-3M.
For assay [9], the system named is HCC 2998.
Assay [10] deals with NCI-H23.
Assay [11] deals with SK-MEL-2.
For assay [12], the system named is TK-10.
Assay [13] concerns SK-MEL-28.
For assay [14], the system named is SF-268.
Assay [15] has as its system OVCAR-3.
The test system of assay [16] is SF-539.
The test system of assay [17] is SK-OV-3.
Assay [18] concerns NCI-H522.

This note sets out measurements from ChEMBL document CHEMBL1201862, “PubChem BioAssay data set” (2004).

SMILES strings stand for the structures.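 Test compounds were applied to cells in 96-well plates for 48 hours at 5 doses. GI50 = concentration required for 50% inhibition of growth.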 Active and inactive are the calls of the source. No stated cut-off is given here; in the data, active = GI50 up to about 1.1 µM and inactive = higher. Where a SMILES comes first, the peptide text is derived from it. The star is where a group is joined. Cbz = O=C(OCc1ccccc1)*; Boc = CC(C)(C)OC(=O)*; OSu = O=C1CCC(=O)N1O*; Bn = c1ccc(C*)cc1 Bounds are passed on as bounds.

Regarding `CC(NC(=O)OC(C)(C)C)C(=O)NC(Cc1ccccc1)C(=O)NCC(=O)Oc1c(Cl)c(Cl)c(Cl)c(Cl)c1Cl` (stereo not drawn), the GI50 in assay [1] is 23.7 µM (inactive); in assay [2], above 10 µM; in assay [3], 25 µM (inactive); in [4], 22.3 µM (inactive); in [5], 12.5 µM (inactive); in assay [6], 29.7 µM (inactive). The GI50 in assay [7] was 23.2 µM (inactive); in assay [8] it was 20.7 µM (inactive); in assay [9], 15.3 µM (inactive); in assay [10], 18.7 µM (inactive); in assay [11], 20.7 µM (inactive); in [12], 27 µM (inactive). Besides, in assay [13], the GI50 is 20.7 µM (inactive).
For the molecule `O=C1NN=CN2C(=O)CCC12` (stereo not drawn), the GI50 is > 100 µM (inactive) in assay [14]; above 100 µM in assay [2]; > 100 µM (inactive) in assay [3]; > 100 µM (inactive) in assay [4]; > 100 µM (inactive) in [15]; > 100 µM (inactive) in assay [5]. Also, the GI50 in [16], in [6], in assay [7], in assay [9], in assay [10] and in assay [11] was > 100 µM (inactive) throughout. Besides, the GI50 in [17], in assay [12] and in assay [13] was > 100 µM (inactive) each time.
With `Cc1ccc(/N=C/c2ccc3c(c2)OCO3)cc1C`, the GI50 in assay [14] is > 100 µM (inactive); in assay [1], > 100 µM (inactive); in [2], above 100 µM; in assay [3], > 100 µM (inactive); in assay [4], > 100 µM (inactive); in assay [15], > 100 µM (inactive). Also, the GI50 in [5], in assay [16], in [6], in assay [7], in assay [8] and in assay [18] was > 100 µM (inactive) each time. In addition, the GI50 in assay [10], in assay [11], in assay [17], in [12] and in [13] was > 100 µM (inactive) throughout.
`O=C(O)CC1CC=C[C@H]2c3cc4c(cc3C(=O)NC12)OCO4` (stereo partly drawn): the GI50 in [14] was > 75 µM (inactive); in assay [2], above 75 µM; in assay [3] it was > 75 µM (inactive); in assay [4] it was > 75 µM (inactive); in assay [15], > 75 µM (inactive); in [16] it was > 75 µM (inactive). The GI50 in [6], in [7], in assay [8], in [9], in assay [18] and in [10] was > 75 µM (inactive) throughout. In addition, the GI50 in assay [17], in [12] and in assay [13] was > 75 µM (inactive) each time.
In the case of `CCCN(CCC)C(=O)c1nc(N)nc(-c2ccc(OC)cc2)c1-c1ccc(OC)cc1`, the GI50 in assay [14] was > 100 µM (inactive); in [1], > 100 µM (inactive); in [2], above 100 µM; in assay [3], > 100 µM (inactive); in [4], > 100 µM (inactive); in assay [15] it was > 100 µM (inactive). For the same molecule, the GI50 was 82.6 µM (inactive) in assay [5]; > 100 µM (inactive) in assay [16]; > 100 µM (inactive) in assay [6]; 29 µM (inactive) in assay [7]; > 100 µM (inactive) in assay [8]; 98.9 µM (inactive) in assay [18]. Further, the GI50 in assay [10], in [11], in [17], in assay [12] and in assay [13] was > 100 µM (inactive) throughout.
In the case of `O=C1[C@H]2ON(c3ccccc3)C(c3ccco3)[C@H]2C(=O)N1c1ccc(Cc2ccc(N3C(=O)[C@@H]4ON(c5ccccc5)C(c5ccco5)[C@@H]4C3=O)cc2)cc1` (stereo partly drawn), the GI50 is > 100 µM (inactive) in assay [14]; > 100 µM (inactive) in assay [1]; above 100 µM in assay [2]; > 100 µM (inactive) in assay [3]; 85.3 µM (inactive) in assay [4]; > 100 µM (inactive) in assay [15]. Besides, the GI50 in assay [5] was > 100 µM (inactive); in assay [16], > 100 µM (inactive); in assay [6], 78.2 µM (inactive); in [7], > 100 µM (inactive); in [8], > 100 µM (inactive); in [9], > 100 µM (inactive). Besides, the GI50 in assay [10], in [11], in [17] and in assay [13] was > 100 µM (inactive) each time.
Turning to `Cc1cc(N(CCC#N)CCC#N)ccc1/N=N/c1ccc(C(=O)O)cc1`, the GI50 in [14] was > 100 µM (inactive); in [1], > 100 µM (inactive); in assay [2], above 100 µM; in [3], > 100 µM (inactive); in [4], > 100 µM (inactive); in assay [15] it was > 100 µM (inactive). The GI50 in [16] was > 100 µM (inactive); in assay [6], > 100 µM (inactive); in assay [7], 99.3 µM (inactive); in assay [8] it was > 100 µM (inactive); in [9], > 100 µM (inactive); in assay [18], > 100 µM (inactive). For the same molecule, the GI50 in [10], in [11], in assay [17], in assay [12] and in [13] was > 100 µM (inactive) in each case.
As to `CCOc1ccc(/C=N\N2C(=O)c3ccccc3C2=O)cc1`, the GI50 is > 100 µM (inactive) in [14]; > 100 µM (inactive) in assay [1]; above 100 µM in assay [2]; > 100 µM (inactive) in assay [3]; > 100 µM (inactive) in [4]; > 100 µM (inactive) in assay [15]. For the same molecule, the GI50 in assay [5], in assay [16], in assay [7], in assay [8], in assay [9] and in [10] was > 100 µM (inactive) in each case. The GI50 in assay [11], in assay [12] and in assay [13] was > 100 µM (inactive) in each case.
As to `CC(C)(C)OC(=O)NC(Cc1ccc(OCc2ccccc2)cc1)C(=O)NC(CCCCNC(=O)OCc1ccccc1)C(=O)ON1C(=O)CCC1=O` (stereo not drawn) (Boc-Tyr(Bn)-Lys(Cbz)-OSu; configuration not given here), the GI50 in assay [1] is 23.5 µM (inactive); in assay [2] it was 16.7 µM; in assay [3], 20.7 µM (inactive); in assay [4], 18.2 µM (inactive); in assay [5], > 10 µM (inactive); in assay [6] it was 27 µM (inactive). Moreover, the GI50 in assay [7] was 20 µM (inactive); in [8], 23.1 µM (inactive); in assay [9] it was 16.5 µM (inactive); in assay [10] it was 17.8 µM (inactive); in assay [11], 17.4 µM (inactive); in [12], 29.6 µM (inactive). The GI50 in assay [13] was 15.8 µM (inactive).
